Reference: article PMC5641120, “Small-molecule inhibitors of PD-1/PD-L1 immune checkpoint alleviate the PD-L1-induced exhaustion of T-cells” (Oncotarget, 2017)

What was measured:
[1] = target: PD-1/PD-L1 immune checkpoint; test: PD1/PD-L1 checkpoint assay (ECs co-cultured with aAPCs, NFAT-luciferase reporter); assay type: cell-based, human; details: for EC50: Hill fit of luciferase activity, 6 h co-culture of ECs and aAPCs; for RLUmax (maximal relative luminescence): Hill fit, luminescence normalized to DMSO-treated controls; for effect on luciferase reporter expression (in words): ECs co-cultured with aAPCs
Source text: A T lymphocyte-like cell line (Jurkat) modified to constitutively express PD-1 and carrying a luciferase reporter gene driven by TCR-inducible NFAT response element (Effector Cells, ECs) was used in T cell activation experiments. When antigen-presenting surrogate CHO cells, constitutively expressing the TCR agonist and PD-L1 (aAPCs) are presented to these ECs in co-culture, TCR signaling is repressed by PD-1 and the reporter remains silenced. Agents efficiently interfering with the PD-1/PD-L1 interaction activate the expression of the reporter gene resulting in the increase in luminescence intensity.
To verify the potency of BMS compounds in the inhibition of the PD-1/PD-L1 interactions, a cell-based model of the PD-1/PD-L1 immune checkpoint blockade was used. In the assay, two model cell lines are utilized: the artificial Antigen-Presenting Cells (PD-L1^+ aAPC/CHO-K1 cells, called aAPCs) overexpressing TCR ligand and PD-L1, and T cell surrogate, a modified Jurkat T cell line overexpressing PD-1 and carrying a luciferase reporter under the control of NFAT promoter (PD-1 Effector Cells, called ECs) [30]. […] Additionally, the cells were propagated in a constant presence of Hygromycin B (50 μg/ml) and G418 (250 μg/ml) to provide a stable expression of the introduced genetic constructs. The two latter antibiotics were omitted in the experiments. Overexpression of PD-1 on ECs and PD-L1 on aAPCs was verified by flow cytometry (not shown) and the presence of the luciferase-expressing gene was verified by monitoring luciferase activity following anti-CD3 antibody stimulation. Antibiotic selection, flow cytometry and reporter expression served as cell line authentication method. The cells were periodically tested and found negative for Mycoplasma contamination using PCR-based method [31].
The aAPCs were seeded in white 96-well plates at the density of 10 000 per well in the culture medium 24 h prior to the assay. […] By this, the concentration of DMSO was kept constant in all samples. 95 μl of the medium was removed from the wells and the cells were overlaid with 40 μl of the compound dilutions. […] Following 6 h incubation at 37°C, the plates were equilibrated at room temperature for 10 min and 80 μl of the Bio-Glo reagent (Promega) was added to each well. After incubation for 10 min, luminescence was quantified using FlexStation 3 (Molecular Devices). Half maximal effective concentrations (EC50) and maximal luminescence values (RLUmax) were determined by fitting the Hill equation to the experimental data.

[2] = target: T1, sPD-L1 interaction with PD-1 receptor exposed at the cell surface (Homo sapiens, UniProt Q9NZQ7); test: Flow cytometry binding of fluorescently labeled sPD-L1 (PD-L1-Atto) to PD-1 expressing cells; assay type: cell-based; details: PD-L1-Atto 1.5 μM pre-incubated with 1 μM BMS compound or 125 μg/ml antibody
T1 construct: made in house; PD-1 stably overexpressed on Jurkat PD-1 Effector Cells from Promega
Experimental: To test if the observed effect of BMS compounds was directly associated with the decreased sPD-L1 recruitment to the cell surface of the PD-1-expressing cells, a His-tagged sPD-L1 was labeled with the Ni-NTA-conjugated fluorescent dye and flow cytometry analysis was performed. When ECs were contacted with labeled sPD-L1, a clear staining was observed (Figure 3B).
Binding of sPD-L1 (aa 18–134) to ECs was evaluated by flow cytometry. The His-tagged PD-L1 protein or its mutants were stained with NTA-Atto 647 N fluorescent dye (Sigma Aldrich) for 2 h at 22°C, at 8:1 molar ratio (protein:dye). PD-L1-Atto was formulated in 150 μl PBS with the tested compounds or antibodies. The samples were incubated for 30 min at 4°C in the dark. Meanwhile, ECs were centrifuged, washed with PBS and suspended in fresh PBS at concentration of 1 × 10^6 cells per ml. 50 μl of ECs was added to each sample and incubated on ice for additional 60 min. The final concentrations of the components were: 25 μg/ml of PD-L1 (1.5 μM), 125 μg/ml the anti-PD-L1 antibodies and control antibodies and 1 μM of the BMS compounds. The samples were analyzed using the BD FACS Verse flow cytometer and BD FACSuite v1.0.6 software.

PD-1/sPD-L1 = PD-1/sPD-L1 effector assay (anti-CD3 activated ECs, luciferase); assay type: cell-based, human; details: anti-CD3, sPD-L1 0.6 μM, BMS compounds 0.12-3 μM; highest concentrations = 2- and 5-fold molar excess over sPD-L1; 24 h
Experimental: To evaluate the potential of BMS compounds in abrogating the inhibitory effect of sPD-L1 on the activation of T cells, sPD-L1 was pre-incubated with tested compounds and presented to ECs together with the anti-CD3-activating antibody.
For the evaluation of the BMS impact on T cell inhibition by soluble PD-L1, the ECs were stimulated with the anti-CD3 antibody in the presence of the recombinant human sPD-L1. For this, the 96-well white flat bottom plates were coated overnight at 4°C with 5 μg/ml of the anti-CD3 antibody or the isotype control solution in PBS. […] Then, 15 μl of the solution was added to each well of the antibody-coated plate. ECs were centrifuged and diluted to 50 000 per ml, and 60 μl of the cell solution was added to each well. The final concentration of sPD-L1 was 10 μg/ml (0.6 μM). The final concentrations of the BMS compounds were: 0.12, 0.3, 1.2 and 3 μM, giving the following BMS:sPD-L1 molar ratios: 1:5, 1:2, 2:1 and 5:1. The cells were cultured for 24 h and the luciferase activity assay was performed using the Bio-Glo Luciferase Assay System (Promega) according to the manufacturer's instructions.

sPD-L1 [3] = target: T2, sPD-L1 (Homo sapiens, UniProt Q9NZQ7); test: Complex analysis by gel filtration (size exclusion chromatography); details: inhibitor:protein 3:1 molar ratio
T2 construct: human PD-L1 (residues 18–134, C-terminal His-tag); His-tag (C); made in house
Experimental: (§1) The formation of solution-stable PD-L1 dimers in the presence of BMS compounds was characterized previously for BMS-202 [26]. The crystal structures of BMS-1001 and −1166 bound to PD-L1 indicated similar properties of the compounds, but this required verification by in-solution assays. […] This was verified by a crosslinking experiment. sPD-L1 preincubated in the presence of a cross-linking agent (bis(sulfosuccinimidyl)suberate, BS3) migrated in SDS-PAGE as a single band corresponding to […] protein.
Superdex S75 10/30 HR column was equilibrated with 10 mM Tris pH 8.0 containing 20 mM NaCl. The column was calibrated with globular protein standards. The retention time of hPD-L1 (4 mg/ml) was determined. hPD-L1/inhibitor complexes were formed at 3:1 (inhibitor:protein) molar ratio, incubated for 15 min at room temperature and clarified by centrifugation for 10 min at 15 000 × g. The samples were analyzed in the same manner as the apo-hPD-L1.

human PD-L1 [4] = target: T3, human PD-L1 (Homo sapiens, UniProt Q9NZQ7); test: 1H-15N HMQC NMR titration of PD-L1; assay type: binding; details: 15N labeled PD-L1, line broadening upon compound addition
T3 construct: human PD-L1 (residues 18–134, C-terminal His-tag); His-tag (C); made in house
Experimental: Based on the two recent Bristol-Myers Squibb patents, the selection of the BMS compounds was done to obtain high diversity of the chemical structures along all modifications of distal, flexible moieties exposed to the solvent (Figure 1A). The compounds were synthesized as described previously with modifications. All compounds were tested for the interaction with PD-L1 using the ^1H-^15N HMQC NMR titration experiment with positive results, as reported elsewhere and in this manuscript (see below). In order to verify the blockade of the PD-1/PD-L1 interaction by the compounds an NMR-based AIDA was performed. Upon the PD-L1 binding the broadening of ^1H-^15N resonance signals of the ^15N labeled PD-1 is observed due to an increased transverse relaxation rate of the higher molecular weight entities. […] All the compounds efficiently disrupted the complex formed by human PD-1 and PD-L1 proteins, as visualized by the restoration of narrow ^1H-^15N signals of PD-1 ([26] and (Figure 1B)).
For further compound development it is of high importance to define the minimal fragments essential for the binding to the target protein. For this, BMS-1166 and its fragments were tested for interaction with PD-L1 using NMR method. From the six decomposition fragments tested, four retained PD-L1 binding potential (Figure 5).
Uniform ^15N labelling was obtained by expressing proteins in the M9 minimal medium containing ^15NH4Cl as the sole nitrogen source. For NMR measurements the buffer was exchanged by gel filtration to PBS pH 7.4 (PD-L1) or 25 mM sodium phosphate containing 100 mM NaCl pH 6.4 (PD-1). 10% (v/v) of D2O was added to the samples to provide the lock signal. All spectra were recorded at 300K using a Bruker Avance III 600 MHz spectrometer. The interaction of the compounds with PD-L1 was evaluated by monitoring the perturbations in chemical shifts of NMR resonances in the ^1H-^15N 2D HMQC upon titration with the compound. The ability of tested compounds to dissociate PD-L1/PD-1 was evaluated using the Antagonist Induced Dissociation Assay (AIDA). In brief, ^15N-labeled PD-1 (0.2 mM) was slightly overtitrated with the unlabeled PD-L1. The compounds were aliquoted into the resulting mixture. During the experiment the ^1H-^15N signals were monitored by the HMQC.

[5] = test system: PD-L1 aAPC/CHO-K1 cells (aAPCs); test: Toxicity towards aAPCs; assay type: cell-based; details: modified CHO-K1 cells (aAPCs), 48 h treatment
sPD-L1 [6] = target: T2, sPD-L1; test: BS3 cross-linking experiment (SDS-PAGE); details: hPD-L1 10 μM, compound 1:1 molar ratio
Experimental: as §1
hPD-L1 was concentrated to 10 μM in PBS pH 7.4 and mixed with BMS-1001 or BMS-1166 in the 1:1 molar ratio, followed by the addition of the BS3 cross-linking reagent at 0.25, 0.5 or 1mM final concentration (Thermo Scientific). After 30-min incubation at room temperature, the reaction was quenched by the addition of Tris pH 7.5 to the final concentration of 25 mM. Control sample contained hPD-L1 and 1 mM BS3 reagent. The samples were analyzed by SDS-PAGE.

[7] = Cytotoxicity (metabolic activity assay) against PD-1 Effector Cells; details: human, PD-1 Effector Cells (modified Jurkat T cells, ECs)
Experimental: (§2) To define the maximum admissible concentrations of BMS compounds for the use in the cell-based assays, the toxicity of the compounds was evaluated with the use of metabolic activity assay. For this, modified Jurkat T cells (ECs) used in all further assays were exposed to the increasing concentration of the tested compounds for 48 h.
(§3) Figure 2 Cytotoxicity and activity of BMS compounds in PD-1/PD-L1 checkpoint assay (A) Cytotoxicity of BMS compounds against the PD-1 Effector Cells was tested using metabolic activity assay following the 48 h treatment of the cells with the indicated compounds. […] The graphs present relative luminescence normalized to the DMSO-treated controls and are representative of the three independent experiments. (D) The result of the fitting of Hill model to experimental data presented on panels B and C. EC50 values represent half maximal effective concentrations, and RLUmax values represent maximal relative luminescence values, and illustrate the potency of the listed molecules in restoring the activity of ECs in the assay.
(§4) 5 000 ECs were seeded on transparent 96-well plates and cultured for 48 h in the presence of increasing concentrations of the BMS compounds or DMSO as a control (the concentration of DMSO was kept constant in all samples). Following the treatment, a metabolic activity test was performed with the use of Biolog Redox Dye Mix MB (BioLog), according to the manufacturer's instructions.

human PD-1/PD-L1 complex = target: T4, human PD-1/PD-L1 complex (Homo sapiens, UniProt Q9NZQ7); design: method as in PMID 27083005; details: shown previously; cited from earlier work
T4 construct: human PD-L1 (residues 18–134, C-terminal His-tag); His-tag (C); made in house

human PD-L1 [8] = target: T3, human PD-L1; design: method as in PMID 27083005; details: shown previously; cited from earlier work
[9] = test system: PD-1 Effector Cells (modified Jurkat T cells, ECs); test: Cytotoxicity (metabolic activity assay) against PD-1 Effector Cells; details: ECs, 48 h treatment, metabolic activity assay
Experimental: as §2, §3, §4

T1 sequence (Q9NZQ7 18-134): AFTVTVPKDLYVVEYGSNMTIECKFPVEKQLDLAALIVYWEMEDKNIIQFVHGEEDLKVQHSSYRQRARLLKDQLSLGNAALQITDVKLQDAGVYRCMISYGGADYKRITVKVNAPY
T3 sequence (Q9NZQ7 18-134): as above
T2 sequence (Q9NZQ7 18-134): as above
T4 sequence (Q9NZQ7 18-134, one chain of several): as the sequence (Q9NZQ7 18-134) above

Molecule: atezolizumab: anti-PD-L1 antibody
- EC50 [1]: 0.42 ± 0.049 nM
- RLUmax (maximal relative luminescence) [1]: 2.72 ± 0.02
- staining of ECs by labeled sPD-L1 (in words) [2]: significantly decreased the staining

Molecule: Cc1cc(CN[C@H](CO)C(=O)O)c(OCc2cccc(C#N)c2)cc1OCc1cccc(-c2ccc3c(c2)OCCO3)c1C [BMS-1001]
- restoration of sPD-L1-suppressed activation of ECs (in words) (PD-1/sPD-L1): completely restored cell activation
- sPD-L1 retention time in size exclusion chromatography (sPD-L1 [3]): significantly shortened
- effect on luciferase reporter expression (in words) [1]: dose-dependently induced the activity of luciferase
- RLUmax (maximal relative luminescence) [1]: 1.88 ± 0.16
- EC50 ([1]; Homo sapiens): 253 ± 120 nM
- interaction with PD-L1 (1H-15N HMQC NMR) (human PD-L1 [4]): induced linewidth broadening
- toxicity (in words) [5]: Low toxicity
- staining of ECs by labeled sPD-L1 (in words) [2]: significantly decreased the intensity of staining
- sPD-L1 dimer formation by cross-linking (SDS-PAGE) (sPD-L1 [6]): two bands in SDS-PAGE analysis, corresponding to sPD-L1 monomer and a dimer
- EC50 at 48 h [7]: 33.4 µM

Molecule: c1ccc2c(c1)OCCO2 [compound 5]
- interaction with PD-L1 (1H-15N HMQC NMR) (human PD-L1 [4]): not-active

Molecule: durvalumab: anti-PD-L1 antibody
- EC50 [1]: 0.333 ± 0.068 nM
- RLUmax (maximal relative luminescence) [1]: 2.94 ± 0.08
- staining of ECs by labeled sPD-L1 (in words) [2]: significantly decreased the staining

Molecule: COc1cc(OCc2cccc(-c3ccccc3)c2C)cc(OC)c1CN[C@@H](CO)C(C)C [BMS-242]
- restoration of sPD-L1-suppressed activation of ECs (in words) (PD-1/sPD-L1): unspecific decrease in the readout level
- EC50 at 48 h [7]: 3 to 6 µM

Molecule: Cc1c(CO)cccc1-c1ccc2c(c1)OCCO2 [compound 4]
- interaction with PD-L1 (1H-15N HMQC NMR) (human PD-L1 [4]): active

Molecule: Cc1cccc(CBr)c1C [compound 6]
- interaction with PD-L1 (1H-15N HMQC NMR) (human PD-L1 [4]): not-active

Molecule: Cc1c(COc2cc(OCc3cccc(C#N)c3)c(CN3C[C@H](O)C[C@@H]3C(=O)O)cc2Cl)cccc1-c1ccc2c(c1)OCCO2 [BMS-1166]
- effect on luciferase reporter expression (in words) [1]: dose-dependently induced the activity of luciferase
- RLUmax (maximal relative luminescence) [1]: 1.72 ± 0.03
- EC50 ([1]; Homo sapiens): 276 ± 29 nM
- interaction with PD-L1 (1H-15N HMQC NMR) (human PD-L1 [4]): induced linewidth broadening
- interaction with PD-L1 (1H-15N HMQC NMR) (human PD-L1 [4]; listed as 1): active
- toxicity (in words) [5]: Low toxicity
- staining of ECs by labeled sPD-L1 (in words) [2]: significantly decreased the intensity of staining

Molecule: Cc1c(COc2ccc(CN3CCCCC3C(=O)O)cc2Br)cccc1-c1ccccc1 (stereo not drawn) [BMS-8]
- dissociation of human PD-1/PD-L1 complex in vitro (human PD-1/PD-L1 complex): efficiently dissociate the human PD-1/PD-L1 complex
- binding to PD-L1 (human PD-L1 [8]): bind to PD-L1
- toxicity (in words) [9]: moderate toxicity

Molecule: nivolumab: anti-PD-1 antibody
- restoration of sPD-L1-suppressed activation of ECs (in words) (PD-1/sPD-L1): abrogated the effect of sPD-L1

Molecule: Cc1c(COc2cc(O)c(C=O)cc2Cl)cccc1-c1ccc2c(c1)OCCO2 [compound 3]
- interaction with PD-L1 (1H-15N HMQC NMR) (human PD-L1 [4]): active

Molecule: Cc1c(COc2cc(F)c(CNC[C@@H](O)CC(=O)O)cc2F)cccc1-c1ccc2c(c1)OCCO2 [BMS-200]
- effect on luciferase reporter expression (in words) [1]: did not affect the reporter expression
- toxicity (in words) [9]: moderate toxicity

Molecule: Cc1c(COc2cc(OCc3cccc(C#N)c3)c(C=O)cc2Cl)cccc1-c1ccc2c(c1)OCCO2 [compound 2]
- interaction with PD-L1 (1H-15N HMQC NMR) (human PD-L1 [4]): active
